Patent publication US12258578B2, “Agent for accelerating maturation or aging of cells” (JUNTENDO EDUCATIONAL FOUNDATION, priority 2019, dated 2025)
“Also recorded” adds a separate entry of the source.

Legend:
[1] = test system: nerve cells induced from human iPS cells; assay: GFP-Synapsin fluorescent reporter screening for nerve cell maturation; assay type: cell-based; settings: for acceleration of cell maturation: human iPS cell-derived neurons, same manner as in Example 1
Protocol: (1) A nerve cell cluster (Neurosphere) containing neural stem cells was prepared in suspension culture from iPS cells, passaged six times, and differentiated into nerves. A mature nerve cell-specific fluorescent reporter (GFP-Synapsin) was introduced using a lentiviral vector. Thereafter, the culture was switched to adherent culture, and 10 μM each of the low-molecular compound library (Sigma Aldrich) was added to the culture medium for neural differentiation, and the culture was performed for 17 days. The fluorescence intensity of GFP-Synapsin was quantified using an imaging cytometer (In cell analyzer). Using an astrocyte conditioned medium (ACM), which accelerates neural differentiation, as a control, compounds showing a fluorescence intensity closer to the control were selected (FIG. 1 and FIG. 2).

[2] = test system: PARK4-iPS cell-derived DAN; assay: Cell loss of PARK4-iPS cell-derived DAN (TH antibody); assay type: cell-based, human
Description: Since KU-60019 accelerates neural differentiation from human iPS cells and cell aging, it was verified whether the culture period required for phenotypic detection in DAN differentiated from Parkinson's disease-iPS cells could be shortened by the addition of KU-60019 to a conventional culture method. The culture periods required until phenotypic detection in the case of addition of KU-60019 and in the case of non-addition of KU-60019 were compared using iPS cells established from a patient with typical PARK 4 (α-synuclein duplication), which develops at a relatively old age (50s and beyond) among hereditary Parkinson's diseases. (1) After performing the differentiation induction of PARK4-iPS cell-derived DAN using the same method as in Example 2(2), the cell loss of DAN was analyzed on days 7 and 10 using a TH antibody.

SHSY5 cells = assay: Cell aging of SHSY5 cells (nuclear membrane staining, qPCR); assay type: cell-based, human
Description: A decrease in Lamin B1 (LMNB1) mRNA (FIG. 12B), an increase in aging marker p16 mRNA (FIG. 12C) and a […] in aging marker p21 mRNA were detected by qPCR (mean±SEM, n=4, *p<0.01.) (FIG. 12D). That is, also in SHSY5 (immortalized cell line of human nervous system), a breakdown of the nuclear membrane was observed by the addition of KU60019.

[3] = test system: human iPS cells differentiated into dopaminergic nerve cells; assay: Quantification of Nestin-positive cells during dopaminergic neural differentiation; assay type: cell-based; settings: 1, 5 or 10 μM, culture for 10 days
Protocol: (§1) (1) When neural differentiation of human iPS cells into dopaminergic nerve cells was performed, KU-60019 was added to the neural differentiation medium at 1, 5 or 10 μM, followed by culture for 10 days, and the cells expressing Nestin, which is a marker of undifferentiated nervous system, were quantified to evaluate the differentiation efficiency (the culture conditions are shown in FIG. 3).

DAN from human iPS cells [4] = assay: Lamin B1 immunostaining of iPS cell-derived DAN; assay type: cell-based; settings: day 7
Protocol: (1) The differentiation induction of DAN from human iPS cells was performed using the same method as in Example 2(2), and immunostaining using a Lamin B1 antibody was performed on day 7 (FIGS. 8-A-C).

[5] = test system: dopaminergic neurons (DAN) differentiated from human iPS cells; assay: Quantification of tyrosine hydroxylase (TH) positive cells (DAN); assay type: cell-based; settings: 1, 5 or 10 μM
Protocol: as §1, with “3). […] (2) In order to compare the amounts of dopaminergic neurons (DAN) differentiated by the same method as in (1), the quantification of tyrosine hydroxylase (TH) positive cells, which is a specific marker of mature DAN, was performed (FIG. 6).” for “3).”

[6] = test system: iPS cell-derived nerve cells (DAN); assay: Intracellular NAD+ concentration by colorimetric method; assay type: cell-based, human; settings: cells recovered after 10 days
Protocol: (3) The differentiation induction of DAN was performed using the same method as in (2), the cells were recovered after 10 days, and the intracellular NAD^+ concentration was measured using a colorimetric method (FIG. 7).

[7] = test system: human fibroblasts derived from a young donor; assay: Aging-specific marker SA-Gal in human fibroblasts; assay type: cell-based
[8] = test system: human fibroblasts derived from a young donor; assay: Aging-specific nuclear membrane abnormalities in human fibroblasts (Lamin B1, Lamin A/C); assay type: cell-based
Description: The proportion of cells showing normal nuclear membrane structure in fibroblasts derived from a young donor was reduced by the action of KU60019 (mean±SEM, n=6, *p<0.01.) (FIG. 10B). In fibroblasts collected from an old donor, when compared with human fibroblasts collected from a young donor, a decrease in Lamin B1, which is a nuclear membrane marker, as an aging-specific nuclear membrane abnormality is observed.

DAN from human iPS cells [9] = assay: γH2AX (Ser139) immunostaining of iPS cell-derived DAN; assay type: cell-based; settings: day 7
Protocol: (2) The differentiation induction of DAN from human iPS cells was performed using the same method as in Example 2(2), and immunostaining using a γH2AX (Ser139) antibody was performed on day 7 (FIGD. 8-D-F).

SMILES: O=c1cc(-c2cccc3c2Sc2ccccc2S3)oc(N2CCOCC2)c1 [KU55933]
- acceleration of cell maturation [1]: only in the cells to which KU60019 was added

SMILES: C[C@@H]1CN(CC(=O)Nc2ccc3c(c2)Cc2cccc(-c4cc(=O)cc(N5CCOCC5)o4)c2S3)C[C@H](C)O1 [KU-60019]
- cell loss of DAN compared to normal control cells ([2]; day 7 of culture): no significant increase in cell loss
- cell loss of DAN compared to normal control cells ([2]; day 10 of culture): lost cells significantly increased
- culture time until Parkinson's disease phenotype is detected ([2]; nerve cells derived from iPS cells of a Parkinson's disease patient): 7 days
- aging-specific nuclear membrane abnormalities (SHSY5 cells; SHSY5 cells, Lamin B1 / Lamin A/C staining): aging-specific nuclear membrane abnormalities were caused
- Lamin B1 (LMNB1) mRNA (SHSY5 cells; qPCR, n=4, p<0.01): decrease
- aging marker p16 mRNA (SHSY5 cells; qPCR, n=4, p<0.01): increase; also recorded: significantly elevated
- amount of Nestin-positive cells [3]: decreased depending on the concentration
- fluorescence intensity of GFP-Synapsin ([1]; 10 μM, 17 days culture, compound library screening): highest fluorescence intensity among the compounds selected
- acceleration of cell maturation [1]: acceleration of cell maturation was observed
- structure of Lamin B1 (nuclear membrane) (DAN from human iPS cells [4]): degraded
- TH positive cells (DAN) ([5]; culture continued to day 10): this difference disappeared
- TH positive cells (DAN) ([5]; day 7 of culture): increased depending on the concentration
- intracellular NAD+ concentration [6]: decreased depending on the concentration
- SA-Gal positive cells [7]: increased to a level equivalent to that in fibroblasts derived from an old donor
- SA-Gal intensity ([7]; n=6, p<0.01): increased similarly
- aging-specific nuclear membrane abnormality (Lamin B1) ([8]; fibroblasts derived from a young donor): reduction of Lamin B1
- proportion of cells showing normal nuclear membrane structure ([8]; fibroblasts derived from a young donor, n=6, p<0.01): reduced
- Lamin B1 (nuclear membrane marker) ([8]; young donor-derived fibroblasts, added for 72 hours): a decrease in Lamin B1 was found
- γH2AX accumulation (DNA damage) (DAN from human iPS cells [9]): accumulated in the nucleus

SMILES: O=c1cc(N2CCOCC2)oc2c(-c3cccc4c3sc3ccccc34)cccc12 [NU7441]
- acceleration of cell maturation [1]: only in the cells to which KU60019 was added
